Test results from ChEMBL document CHEMBL4359885, “Novel multi target-directed ligands targeting 5-HT4 receptors with in cellulo antioxidant properties as promising leads in Alzheimer's disease” (Eur J Med Chem, 2019).
The source made the active and inactive calls. The rule behind the calls is not given here.

Experiments:
[1] = target: T1, 5-hydroxytryptamine receptor 4 (Homo sapiens, UniProt Q13639); assay: Displacement of [3H]-GR 113808 from recombinant human brain 5HT4 receptor at 10^-8 M measured after 60 mins by radio ligand binding assay relative to control
T1 sequence (Q13639 whole entry): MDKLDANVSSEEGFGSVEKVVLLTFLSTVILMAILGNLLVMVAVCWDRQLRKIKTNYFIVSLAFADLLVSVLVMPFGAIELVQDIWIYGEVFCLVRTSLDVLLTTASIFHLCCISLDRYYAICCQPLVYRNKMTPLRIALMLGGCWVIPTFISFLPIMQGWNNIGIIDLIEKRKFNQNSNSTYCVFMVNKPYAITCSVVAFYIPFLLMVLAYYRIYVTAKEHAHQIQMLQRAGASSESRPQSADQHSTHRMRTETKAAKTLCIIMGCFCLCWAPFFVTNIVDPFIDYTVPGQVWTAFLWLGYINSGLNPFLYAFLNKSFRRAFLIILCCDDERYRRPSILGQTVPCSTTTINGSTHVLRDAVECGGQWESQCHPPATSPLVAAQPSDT

[2] = Antioxidant activity assessed as […] radical scavenging activity preincubated for 30 mins followed by AAPH addition and measured every minute for 2 hrs by ORAC fluorescein assay relative to trolox; type: functional
[3] = target: T1, 5-hydroxytryptamine receptor 4; assay: Displacement of [3H]-GR 113808 from recombinant human brain 5HT4 receptor at 10^-6 M measured after 60 mins by radio ligand binding assay relative to control
Acetylcholinesterase = Acetylcholinesterase (Homo sapiens, UniProt P22303); assay: Inhibition of human erythrocytes AChE assessed as reduction in 5-thio-2-nitrobenzoate anion formation using acetylthiocholine iodide as substrate preincubated for 5 mins followed by substrate addition by Ellman's method
Sequence of Acetylcholinesterase (P22303 whole entry): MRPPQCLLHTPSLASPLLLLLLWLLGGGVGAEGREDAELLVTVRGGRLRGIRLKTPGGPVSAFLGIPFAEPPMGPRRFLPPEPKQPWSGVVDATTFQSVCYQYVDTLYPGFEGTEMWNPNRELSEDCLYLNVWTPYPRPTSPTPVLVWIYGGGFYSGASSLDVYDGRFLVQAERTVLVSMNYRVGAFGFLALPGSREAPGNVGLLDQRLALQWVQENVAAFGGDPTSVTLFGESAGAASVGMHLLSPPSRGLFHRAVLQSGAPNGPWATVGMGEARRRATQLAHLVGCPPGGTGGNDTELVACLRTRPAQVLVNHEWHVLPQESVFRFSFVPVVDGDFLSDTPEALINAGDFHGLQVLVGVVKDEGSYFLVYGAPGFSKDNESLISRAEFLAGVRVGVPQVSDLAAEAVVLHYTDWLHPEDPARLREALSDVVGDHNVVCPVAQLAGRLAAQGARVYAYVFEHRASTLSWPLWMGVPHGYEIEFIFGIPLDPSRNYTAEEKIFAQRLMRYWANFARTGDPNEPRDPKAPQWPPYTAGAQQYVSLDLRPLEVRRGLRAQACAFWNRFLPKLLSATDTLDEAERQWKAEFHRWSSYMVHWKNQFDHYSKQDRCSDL

[4] = Antioxidant activity assessed as DPPH radical scavenging activity measured after 120 mins; type: functional
SH-SY5Y [5] = assay: Antioxidant activity in human SH-SY5Y cells assessed as inhibition of t-BuOOH-induced intracellular oxidative stress by measuring ROS level at 100 uM preincubated for 24 hrs followed by t-BuOOH addition and measured after 30 mins by DCFH-DA dye-based fluorescence assay; type: functional, cell-based
SH-SY5Y [6] = assay: Cytotoxicity against human SH-SY5Y cells assessed as reduction in cell viability at 50 uM measured after 24 hrs by MTT assay relative to control; type: cell-based
[7] = target: T1, 5-hydroxytryptamine receptor 4; assay: Displacement of [3H]-GR 113808 from recombinant human brain 5HT4 receptor measured after 60 mins by radio ligand binding assay
[8] = target: T1, 5-hydroxytryptamine receptor 4; assay: Agonist activity at human HA-tagged 5HT4 receptor expressed in COS7 cells assessed as induction of cAMP production measured after 10 mins by HTRF assay relative to control; type: functional, cell-based
SH-SY5Y [9] = assay: Cytotoxicity against human SH-SY5Y cells assessed as reduction in cell viability at 0.5 to 10 uM after 24 hrs by MTT assay relative to control; type: cell-based
[10] = target: T1, 5-hydroxytryptamine receptor 4; assay: Partial agonist activity at human HA-tagged 5HT4 receptor expressed in COS7 cells assessed as induction of cAMP production measured after 10 mins by HTRF assay; type: functional, cell-based
SH-SY5Y [11] = assay: Antioxidant activity in human SH-SY5Y cells assessed as inhibition of t-BuOOH-induced intracellular oxidative stress by measuring ROS level at 10 uM preincubated for 24 hrs followed by t-BuOOH addition and measured after 30 mins by DCFH-DA dye-based fluorescence assay relative to control; type: functional
[12] = target: T1, 5-hydroxytryptamine receptor 4; assay: Binding affinity to recombinant human brain 5HT4 receptor by radio ligand binding assay
SH-SY5Y [13] = assay: Cytotoxicity against human SH-SY5Y cells assessed as reduction in cell viability at 0.5 to 10 uM measured after 24 hrs by MTT assay; type: cell-based

Molecule `COc1cc(CN2CCC(CCC(=O)c3cc(Cl)c(N)cc3OC)CC2)ccc1O` has an inhibition [1] of 7%, a fold change (FC) [2] of 3.88 and an inhibition [3] of 95%. For the same molecule, the IC50 (Acetylcholinesterase) was 535 nM and the EC50 [4] was 180 µM.

For `Cc1c(C)c2c(c(C)c1O)CCC(C)(C(=O)O)O2` (stereo not drawn) [TROLOX], the inhibition (SH-SY5Y [5]) was “Active” and the EC50 [4] was 22.9 µM.

Work on `O=c1c(O)c(-c2ccc(O)c(O)c2)oc2cc(O)cc(O)c12` [QUERCETIN] yielded a fold change (FC) [2] of 6.5 and an EC50 [4] of 9.3 µM.

With `COc1cc(N)c(Cl)cc1C(=O)CCC1CCN(Cc2ccc3c(c2)OCO3)CC1` the inhibition [1] was 22%, the fold change (FC) [2] was under 0.2 and the inhibition [3] was 100%. For the same molecule, the EC50 [4] was over 250 µM.

For `COc1cc(/C=C/C(=O)NCCN2CCC(CCC(=O)c3cc(Cl)c(N)cc3OC)CC2)ccc1O`, the inhibition [1] was 39%, the Activity (SH-SY5Y [6]) was 68% and the fold change (FC) [2] was 1.47. The inhibition [3] was 100%, the IC50 [7] was 101 nM and the Emax [8] was 47%. It also gave an EC50 [4] of 45.5 µM, an Activity (SH-SY5Y [9]) of 12% and an EC50 [10] of 4.5 nM. For the same molecule, the inhibition at 10 µM (SH-SY5Y [11]) was 50% and the Ki [12] was 101 nM.

With `COc1cc(N)c(Cl)cc1C(=O)CCC1CCN(Cc2ccc(O)c(O)c2)CC1` the inhibition [1] was 76%, the Activity (SH-SY5Y [6]) was 37% and the fold change (FC) [2] was 3.4. It also gave an inhibition [3] of 100%, an IC50 (Acetylcholinesterase) of 138 nM and an IC50 [7] of 7.5 nM. The Emax [8] was 72%, the EC50 [4] was 19.6 µM and the EC50 [10] was 2.8 nM. For the same molecule, the inhibition at 10 µM (SH-SY5Y [11]) was 50%, the Activity (SH-SY5Y [13]) was “Non-Toxic” and the Ki [12] was 5.9 nM.

Work on `COc1ccc(CN2CCC(CCC(=O)c3cc(Cl)c(N)cc3OC)CC2)cc1O` yielded an inhibition [1] of 64%, an Activity (SH-SY5Y [6]) of 40% and a fold change (FC) [2] of 3.41. It also gave an inhibition [3] of 100%, an IC50 [7] of 14.5 nM and an Emax [8] of 57%. It also gave an EC50 [4] of 85.5 µM, an EC50 [10] of 1.4 nM and an inhibition at 10 µM (SH-SY5Y [11]) of 50%. For the same molecule, the Activity (SH-SY5Y [13]) was “Non-Toxic” and the Ki [12] was 12.7 nM.

In the case of `COc1cc(N)c(Cl)cc1C(=O)CCC1CCN(Cc2ccc(OCc3ccccc3)c(OCc3ccccc3)c2)CC1`, the inhibition [1] is reported as 3%, the fold change (FC) [2] is reported as under 0.2 and the inhibition [3] is reported as 89%. It also gave an EC50 [4] of over 250 µM.

`NCCc1c[nH]c2ccc(O)cc12` gave an inhibition [1] of 0% and an inhibition [3] of 65%.

For `COc1cc(N)c(Cl)cc1C(=O)CCC1CCN(CCNC(=O)CCCC[C@@H]2CCSS2)CC1`, the inhibition [1] was 26%, the Activity (SH-SY5Y [6]) was 48% and the fold change (FC) [2] was 0.76. The inhibition [3] was 99%, the EC50 [4] was over 250 µM and the inhibition (SH-SY5Y [11]) was “inactive”. For the same molecule, the Activity (SH-SY5Y [13]) was “Non-Toxic”.

In the case of `COc1ccc(CN2CCC(CCC(=O)c3cc(Cl)c(N)cc3OC)CC2)cc1OCc1ccccc1`, the inhibition [1] is reported as 7%, the fold change (FC) [2] is reported as under 0.2 and the inhibition [3] is reported as 88%. It also gave an EC50 [4] of over 250 µM.

`COc1cc(CN2CCC(CCC(=O)c3cc(Cl)c(N)cc3OC)CC2)ccc1OCc1ccccc1` gave an inhibition [1] of 0%, a fold change (FC) [2] of under 0.2 and an inhibition [3] of 97%. It also gave an EC50 [4] of over 250 µM.
